Reference: PubChem BioAssay AID1895 (NMMLSC, 2009)
pEC50, pKi: −log10 of the molar value. Activity calls are given as the source filed them. The rule behind the calls is not given here.

Molecular target: MEK5 PB1 domain binding to MEKK2 (MAP3K2) mutant PB1, human
Assay: inhibitors of MEK5 binding to mutant MEKK2, dose response, biochemical, bead multiplex flow cytometry (AID 1895)
Conditions: Bead-based multiplex flow cytometry; for pKi: measured here: Ki for PB1 binding

SMILES	EC50	pEC50	pKi
Cc1nc(N)sc1-c1csc(Nc2ncccn2)n1	> 30 µM (inactive)	–	–
NC(=O)CSc1nnc(Cc2ccc3c(c2)OCO3)o1	> 30 µM (inactive)	–	–
CCCCCCOc1ccc(/C(C)=N/NC2=NCCN2)cc1[N+](=O)[O-]	–	4.84	–
CCCCCCCCCCOC(=O)Cn1c(COc2ccc(OC)cc2)[n+](C)c2ccccc21	> 30 µM (inactive)	–	–
C=CCN1C(=O)/C(=C/c2ccc(-c3ccc(F)cc3)o2)SC1=S	inactive	–	–
Cc1cc(N=Nc2ccc(C)c(N=Nc3cc(C)c(N)cc3N)c2)c(N)cc1N	> 30 µM (inactive)	–	–
CCC(/C=C1\Sc2ccc(OC)cc2N1CC)=C\c1sc2ccc(OC)cc2[n+]1CCCS(=O)(=O)[O-]	> 30 µM (inactive)	–	–
CCC(/C=C1\Sc2ccc(OC)cc2N1CCO)=C\c1sc2ccc(OC)cc2[n+]1CCO	–	6.29	6.30
COc1ccc(C(CCNCc2ccc(OC(C)C)cc2)c2ccccc2OC)cc1 (centres undefined)	> 30 µM (inactive)	–	–
COc1ccc(CSc2n[nH]c(C)n2)cc1[N+](=O)[O-]	> 30 µM (inactive)	–	–
CCOC(=O)C(C(=O)OCC)c1cc(Br)c2noc3c2c1C(=O)c1ccccc1-3	inactive	–	5.54
NC(N)=N/N=C/c1ccc(OCc2ccc(Cl)cc2Cl)cc1	–	5.58	–
Brc1ccc(N=C/C=C/C=C/Nc2ccc(Br)cc2)cc1	> 30 µM (inactive)	–	–
CCCCCCCCCCOC(=O)Cn1c(COc2ccccc2OC)[n+](C)c2ccccc21	> 30 µM (inactive)	–	–
Nc1cc2nc[nH]c2cc1N	inactive	–	5.24
CCCCCCCCCC[N+](C)(C)CC/C=C1/c2ccccc2Sc2ccc(Cl)cc21	> 30 µM (inactive)	–	–
COc1ccc(CNC[C@@H](CCCCN(C)Cc2ccc(OC)cc2)N2C[C@H](c3ccccc3)N(CCc3ccc(Cl)c(Cl)c3)C(=O)C2=O)cc1	> 30 µM (inactive)	–	–

SMILES	EC50	pEC50	pKi
N#CC(C#N)=c1ccc2c(c1)N1C(c3ccccc3)=CC(c3ccccc3)C3CCCCC31N=2 (centres undefined)	> 30 µM (inactive)	–	–
OCCCCNCc1ccc(OCc2ccc(Cl)cc2Cl)cc1	> 30 µM (inactive)	–	–
CCN1/C(=C/C=C/C=C/C=C/c2sc3ccccc3[n+]2CC)Sc2ccccc21	> 30 µM (inactive)	–	–
CN1C(=CC=C2C=C(I)C(=O)C(I)=C2)C(C)(C)c2ccccc21	–	5.29	5.30
CC(=O)c1c(C)[nH]c(C(=O)NC2=NCCS2)c1C	> 30 µM (inactive)	–	–
CCCCCCCCCCOC(=O)Cn1c(COc2cccc(C)c2)[n+](C)c2ccccc21	> 30 µM (inactive)	–	–
O=C(CCCC(=O)N(CC(=O)NC1CCCC1)C1CCCC1)Nc1ccccn1	> 30 µM (inactive)	–	–
CN(C)c1ccc(NC(=O)CN2CCC(O)(c3ccccc3)CC2)cc1	> 30 µM (inactive)	–	–
CCCCn1c(O)c(/C=C/C=C/C=Nc2ccccc2)sc1=S	inactive	–	–
CCCCCCCCCCOC(=O)Cn1c(COc2ccccc2)[n+](C)c2ccccc21	–	5.22	–
CCCCCCCCCCCCCCCC[n+]1cccc2ccccc21	–	5.16	–
CNC(=O)C(=O)Nc1c(C)cc(C)cc1C	> 30 µM (inactive)	–	–
S=c1[nH]nc(-c2ccc(Cl)cc2)n1-c1ccc2c(c1)OCCO2	> 30 µM (inactive)	–	–
Nc1ccc(Nc2ccccc2N)cc1	> 30 µM (inactive)	–	–
c1ccc(CNc2nc(NCc3ccccc3)c3ccccc3n2)cc1	> 30 µM (inactive)	–	–
CCCCCCCCCCCCCCCC[n+]1ccc(/C=N/O)cc1	–	5.06	–
CCCN(CCC)CCNC(=O)c1cc2c(-c3ccc(Cl)cc3)nn(C)c2s1	–	4.95	–

The remaining lines, values ahead:

EC50	pEC50	pKi	SMILES
> 30 µM (inactive)	–	–	O=C(c1cc(COc2c(F)cccc2F)on1)N1C[C@H]2CC[C@H]1C2
> 30 µM (inactive)	–	–	Cc1ccnc(NC(=O)C2(c3cccs3)CCOCC2)c1
–	5.96	–	CCOC(=O)c1c(-c2ccc(-c3ccccc3)cc2)csc1NC(=O)CNCCN(C)C
–	5.30	–	CCN(CC)CCNC(=O)c1ccc(NC(=O)c2cn(-c3ccccc3)nc2-c2cccs2)cc1
> 30 µM (inactive)	–	–	O=C(NNc1c2ccccc2nc2ccccc12)c1cc2ccccc2cc1O
> 30 µM (inactive)	–	–	COc1ccc(N2CC(C(=O)Nc3nnc(SCc4ccccn4)s3)CC2=O)cc1 (centres undefined)
–	5.08	–	COc1ccc(/C=N/Nc2cc(C)nc3ccc(Br)cc23)cc1
inactive	–	–	C#CCOCCOCCOCCNc1nc(N2CCN(C(=O)[C@H]([C@@H](C)CC)n3cc([C@@H](N)CO)nn3)CC2)nc(N2CCN(C(=O)[C@H](Cc3cc4ccccc4[nH]3)n3cc([C@@H](N)Cc4ccc(O)cc4)nn3)CC2)n1
> 30 µM (inactive)	–	–	Cc1ccccc1OCC(O)CNC1CCC(NCC(O)COc2ccccc2C)CC1 (centres undefined)
inactive	–	5.50	CCN1C(c2ccccc2)=C(c2ccccc2)S/C1=C/C=C1\SC(=S)N(C)C1=O
> 30 µM (inactive)	–	–	C#CCOCCOCCOCCNc1nc(N2CCN(C(=O)C(Cc3ccc(O)cc3)n3cc(C(N)CC(C)C)nn3)CC2)nc(N2CCN(C(=O)C(Cc3cc4ccccc4[nH]3)n3cc(C(N)C(C)CC)nn3)CC2)n1 (centres undefined)
–	4.88	–	COc1ccc(C2NCCc3c2[nH]c2ccccc32)cc1CN1CCc2cc(OC)c(OC)cc2C1C (centres undefined)
> 30 µM (inactive)	–	–	CC(C)n1cc(CN2CCC(C(=O)Nc3cccc(-c4cccc(Cl)c4)c3)CC2)cn1
–	4.58	–	CCCCCc1cc(=O)oc2c(C(CCN3CCCC3)c3ccc(N(C)C)cc3)c(OC)cc(OC)c12 (centres undefined)
> 30 µM (inactive)	–	–	CCN(CC)CCOC(=O)c1ccc(N/C=C(/C#N)c2nc(-c3ccc4c(c3)OCO4)cs2)cc1
–	5.65	–	COc1ccc(Cn2c(SCc3ccc(C)cc3)nc3cc(OC)c(OC)cc3c2=N)cc1Cl
> 30 µM (inactive)	–	–	CCN1/C(=C/c2ccc3cc(C)ccc3[n+]2CC)Sc2cc(C)c(C)cc21
> 30 µM (inactive)	–	–	CCN(CC)CCOC(=O)c1ccc(N/C=C(/C#N)c2nc(-c3cccc(OC)c3)cs2)cc1
> 30 µM (inactive)	–	–	COc1ccccc1N(CN1C(=O)c2ccccc2C1=O)C(=O)c1cccc(C)c1
–	5.35	5.36	CCNc1ccc2noc3c2c1C(=O)c1ccccc1-3
> 30 µM (inactive)	–	–	Cc1cc2ccccc2n1CCNC(=O)c1ccccc1
–	5.39	–	C#CCOCCOCCOCCNc1nc(N2CCN(C(=O)C(Cc3cc4ccccc4[nH]3)n3cc(C(N)C(C)CC)nn3)CC2)nc(N2CCN(C(=O)C(Cc3cc4ccccc4[nH]3)n3cc(C(N)C(C)CC)nn3)CC2)n1 (centres undefined)
> 30 µM (inactive)	–	–	O=C(Nc1ccc(C2=NCCN2)cc1)c1ccc(C(=O)Nc2ccc(C3=NCCN3)cc2)c([N+](=O)[O-])c1
–	5.27	–	COc1cc2nc(N3CCN(c4cc(C)ccc4C)CC3)nc(N)c2cc1OC

EC50	pEC50	pKi	SMILES
> 30 µM (inactive)	–	–	C#CCOCCOCCOCCNc1nc(N2CCN(C(=O)[C@H](Cc3ccc(O)cc3)n3cc([C@@H](N)C(C)CC)nn3)CC2)nc(N2CCN(C(=O)[C@H](Cc3cc4ccccc4[nH]3)n3cc([C@@H](N)Cc4ccc(O)cc4)nn3)CC2)n1 (some centres undefined)
> 30 µM (inactive)	–	–	COc1ccc(-c2cc(C#N)nc(N3CCNCC3)n2)cc1
> 30 µM (inactive)	–	–	COc1ccc(Cn2c(SCc3ccccc3C)nc3cc(OC)c(OC)cc3c2=N)cc1
> 30 µM (inactive)	–	–	Cc1sc(NC(=O)c2ccccc2)c(C(c2ccccn2)N2CCN(CCO)CC2)c1C (centres undefined)
–	5.23	–	S=C(Nc1cccc(Cl)c1)N(CCCN1CCCC1)Cc1cccn1Cc1ccc(Cl)cc1
–	5.15	–	FC(F)(F)c1cccc(NC(=S)N(CCCN2CCCC2)Cc2cccn2Cc2ccc(Cl)cc2)c1
–	4.68	–	C#CCOCCOCCOCCNc1nc(N2CCN(C(=O)[C@H]([C@@H](C)CC)n3cc([C@@H](N)CC(C)C)nn3)CC2)nc(N2CCN(C(=O)[C@H](Cc3cc4ccccc4[nH]3)n3cc([C@@H](N)CC(C)C)nn3)CC2)n1
> 30 µM (inactive)	–	–	Cc1nc(Nc2cnc(/C=C/c3cc(C(=O)Nc4cccc(C(F)(F)F)c4)ccc3C)cn2)cc(N2CCNCC2)n1
> 30 µM (inactive)	–	–	COc1ccc(Cn2cc3c(-c4ccc(F)cc4)nnc-3c3cc(OC)c(OC)cc32)cc1
> 30 µM (inactive)	–	–	Cc1ccc(-c2csc(NC(=O)C[n+]3cc(-c4ccc(C)cc4)n4c3CCC4)n2)cc1
–	4.86	–	COC(=O)C1=C(C)N(Cc2ccccc2)C(=NCc2cccc(C(F)(F)F)c2)N[C@H]1c1cccc(F)c1
–	5.34	–	CCc1ccc(Nc2n[n+](-c3ccccc3)c(-c3ccc(OC)c(Br)c3)s2)cc1
> 30 µM (inactive)	–	–	CCN1CCN(Cc2ccc(NC(=O)c3cc(NC(=O)c4cncc(-c5cccs5)c4)cc(OC)c3)cc2C(F)(F)F)CC1
–	5.42	–	C#CCOCCOCCOCCNc1nc(N2CCN(C(=O)[C@H](Cc3cc4ccccc4[nH]3)n3cc([C@@H](N)C(C)CC)nn3)CC2)nc(N2CCN(C(=O)[C@H](Cc3cc4ccccc4[nH]3)n3cc([C@@H](N)Cc4ccc(O)cc4)nn3)CC2)n1 (some centres undefined)
> 30 µM (inactive)	–	–	Cc1cc2ccccc2n1CCNC(=O)c1cccs1
> 30 µM (inactive)	–	–	COc1cc(/C=N/NC(=O)c2cc3ccccc3cc2O)ccc1OCCN1CCCCC1
> 30 µM (inactive)	–	–	CCN1/C(=C\c2ccc3cc(C)ccc3[n+]2CC)Sc2cc(C)c(C)cc21
> 30 µM (inactive)	–	–	Cc1cc2cc(CNC(=O)NC3CCCCC3)ccc2[nH]1
> 30 µM (inactive)	–	–	CC[n+]1c(/C=C/C=C/N(C(C)=O)c2ccccc2)sc2ccccc21
> 30 µM (inactive)	–	–	CCN1CCN(Cc2ccc(NC(=O)c3cc(NC(=O)c4cnn(-c5ccccc5)c4N)cc(OC)c3)cc2C(F)(F)F)CC1
> 30 µM (inactive)	–	–	C#CCOCCOCCOCCNc1nc(N2CCN(C(=O)[C@H](Cc3ccc(O)cc3)n3cc([C@@H](N)CC(C)C)nn3)CC2)nc(N2CCN(C(=O)[C@H](Cc3cc4ccccc4[nH]3)n3cc([C@@H](N)CC(C)C)nn3)CC2)n1
inactive	–	6.85	CCC(=C/c1sc2ccc3ccccc3c2[n+]1C)/C=C1\Sc2ccc3ccccc3c2N1C
–	4.96	–	C#CCOCCOCCOCCNc1nc(N2CCN(C(=O)[C@H](CCCCN)n3cc([C@@H](N)CC(C)C)nn3)CC2)nc(N2CCN(C(=O)[C@H](Cc3cc4ccccc4[nH]3)n3cc([C@@H](N)Cc4ccc(O)cc4)nn3)CC2)n1
> 30 µM (inactive)	–	–	C#CCOCCOCCOCCNc1nc(N2CCN(C(=O)[C@H](CCC(=O)O)n3cc(C(N)CO)nn3)CC2)nc(N2CCN(C(=O)[C@H](Cc3cc4ccccc4[nH]3)n3cc(C(N)[C@H](C)CC)nn3)CC2)n1 (some centres undefined)
